Measured values as given in patent US20040132821A1, “Therapeutic combination of carnitine and antioxidant polyphenols” (priority 2002, published 2004).
Read-outs that look alike come from different tables or passages of the source.

Legend:
rats = test: Toxicological test, parenteral administration, rats; format: in vivo
Excerpt: (§1) Both carnitines and hydroxytyrosol are well known for their low toxicity and good tolerability. These favorable toxicological characteristics of carnitines and hydroxytyrosol have been confirmed.

mice = test: Toxicological test, parenteral administration, mice; format: in vivo
Excerpt: as §1

[1] = humans, after ingestion; cited from earlier work
[2] = after consumption of a meal, hydroxytyrosol in olive oil; cited from earlier work
[3] = cited from earlier work

Compound	amount possible to administer parenterally (rats)	amount possible to administer parenterally (mice)	preferential route of excretion [1]	time of peak postprandial concentration [2] [h]	oral bioavailability ([3]; aqueous solution) [%]	oral bioavailability ([3]; olive oil solution) [%]
CC(=O)O[C@H](CC(=O)[O-])C[N+](C)(C)C [acetyl-L-carnitine, Acetyl-L-carnitine]	up to 250 mg/kg	up to 250 mg/kg	–	–	–	–
OCCc1ccc(O)c(O)c1 [hydroxytyrosol, Hydroxytyrosol]	–	–	glucuronide conjugates in urine	1 to 2	71	99
